Results on two sequences are retold here after US9878015B2, “Pharmaceutical compositions and methods for the treatment of metastatic cancer” (IMMUNE SYSTEM KEY LTD., priority 2013, dated 2018).

“Also recorded” adds a separate entry of the source. Where no end group is shown, it is not given here.

One assay deals with tumor. Particulars: adult Balb/C mice model; cited from earlier work.
The subject of assay [1] is tissue plasminogen activator (TPA) secreted by human adenocarcinoma pancreatic cancer cells. The assay is described as follows: Tissue type plasminogen activator (TPA) human ELISA assay on cell supernatant. It counts as cell-based. To be noted: 1-50 μg/ml peptide, 24 hours; cell line 1, 2 and 3; FIG. 1. The procedure:
Tissue Type Plasminogen Activator (TPA) Human ELISA Assay
Human adenocarcinoma pancreatic cancer cells were grown until reaching 70-80% density in the flask and were detached from the flask using Trypsin EDTA as described above. Cells suspended in medium and Trypsin were then centrifuged and re-suspended in 2 ml fresh medium (as described for the BrdU incorporation assay, above).
The cells were then fluidized and 3 ml medium were added to the cell suspension such that the cells were re-suspended in a total volume of 5 ml medium. Cells were counted and diluted to a concentration of 50,000 cells/ml medium. Next, the cells were placed in each well of a 6 well plate (Nunc cat no. 140675), by placing 2 ml cells culture per well such that each well contains 100,000 cells. The cells were next incubated over-night at 37° C. in the incubator.
The supernatant was discarded and replaced by 1 ml RPMI medium containing 2.5% FBS. Cells were then incubated for 24 hours or 48 hours at 37° C. in the presence of the Nerofe peptide at the final concentrations of 1, 10, 25 and 50 μg/ml. […]
Next, a TPA ELISA assay was performed as follows: the supernatant was thawed and kept on ice, then diluted 1:15 with the TPA diluents provided with the kit (x1N, Abcam cat no. ab108914). The procedure was continued according to the manufacturer's protocol and ELISA plates were read at an optical density (O.D.) of 450/590.
(ELISA stands for enzyme-linked immunosorbent assay.)

The subject of assay [2] is soluble ST2 (sST2) secreted by human adenocarcinoma pancreatic cancer cells. The assay is described as follows: Soluble ST2 (sST2) ELISA assay, pancreatic cancer cells. In kind it is cell-based. Particulars: 1-50 μg/ml peptide; all tested cells; FIG. 2. As to the method:
(§1) Soluble ST2 (sST2) ELISA Assay
(§2) Human adenocarcinoma pancreatic cancer cells and human breast cancer cells (MDA-MB-231) were grown until reaching 70-80% cell density in the flask and were detached from the flask using Trypsin EDTA as described above. Cells suspended in medium and Trypsin were then centrifuged and re-suspended in 2 ml fresh medium (as described for the BrdU incorporation assay above).
(§3) The cells were then fluidized and 3 ml medium were added to the cell suspension such that the cells were re-suspended in a total volume of 5 ml medium. The cells were then counted and diluted to a concentration of 50,000 cells/ml medium. Cells at 2 ml per plate were placed in each well of a 6 well plate such that each well contained 100,000 cells. The cells were incubated over-night in 37° C. in the incubator.
(§4) The supernatant was discarded and replaced by 1 ml RPMI medium containing 2.5% FBS. The cells were then incubated for 24 or 48 hours in 37° C. in the presence of the Nerofe peptide at the final concentrations of 1, 10, 25 and 50 μg/ml. […]
(§5) Detecting of sST2 was performed by diluted anti-sST2 Affinity purified antibody (Genmed, project ID 35622 B-Form) 1:100 in diluent (0.05% TW-20, 0.1% BSA in PBS), where 100 μl of the detection antibody was loaded on each well. […] Plate absorbance was performed in a microplate reader at O.D. of 450/590 nm.

Assay [3] has as its system soluble ST2 (sST2) in human breast cancer cells (MDA-MB-231). The assay is described as follows: Soluble ST2 (sST2) ELISA assay, breast cancer cells. In kind it is cell-based. Particulars: MDA-MB-231, similar assay conditions, data not shown. The procedure:
as §1, §2, §3, §4, §5

Assay [4] has as its system human adenocarcinoma pancreatic cancer cells. The assay is described as follows: Bromodeoxyuridine (BrdU) incorporation assay (cell proliferation). It counts as cell-based. To be noted: 1, 10, 25 and 50 μg/ml peptide vs control; no correlation with concentration. As to the method:
Bromodeoxyuridine (BrdU) Incorporation Assay
Human adenocarcinoma pancreatic cancer cells and human breast cancer cells were grown until reaching 70-80% density in the flask and detached from the flask using Trypsin EDTA as described above (the above protocol for cell culturing was used until the step of adding 10 ml medium to the Trypsin-treated cells). The cells suspended in medium and Trypsin were then transferred into a 50 ml conical tube and centrifuged at 300 g (10 min, 4° C.). The supernatant was then discarded and the cell pellet was re-suspended in fresh medium (2 ml medium prepared as described above).
The cells were then fluidized and additional 3 ml medium were added to the cell suspension such that the cells were re-suspended in a total volume of 5 ml medium. The cells were then counted and diluted to a concentration of 20,000 cells/ml medium. Next, the cells were placed in a 96 well plate (Nunc cat no. 167008), placing 100 μl cell suspension per well, such that each well contained 2000 cells. The cells were then incubated over-night in 37° C. in the incubator.
The concentrated Nerofe peptide was suspended in a total volume of 100 μl medium and added to the assayed cells in the 96-well plate to a final concentration of 1, 10, 25 and 50 μg/ml. Control (background) assays were performed in the absence of the peptide, namely, 100 μl medium was added to control cells. […]

Assay [5] deals with adenocarcinoma pancreatic cancer cells, cell line 1. The assay can be described thus: Radius cell migration assay, cell line 1. To be noted: cell line 1, Nerofe 10 μg/ml. In kind it is cell-based, human. As to the method:
(§6) Cell Migration Assay of Human Cancer Cell
(§7) Human adenocarcinoma pancreatic cancer cells were grown until reaching 70-80% cell density in the flask and detached from the flask using Trypsin EDTA as described above. Cells suspended in medium and Trypsin were then centrifuged 10 minutes at 300 g (4° C.) and re-suspended in 2 ml fresh medium (as described for the BrdU incorporation assay above).
(§8) The cells were then fluidized and 3 ml medium were added such that the cells were suspended in a volume of 5 ml medium and subsequently counted and diluted to a concentration of 150,000 or 300,000 cells/ml medium.
(§9) Alternatively, Dulbecco's modification of Eagle's medium (DMEM, Biological Industries cat no. 01-055-1A) supplemented with 50 ml FBS (Biological industries cat no. 04-121-1A), 5 ml Hepes 1M (Biological industries cat no. 03-025-1C), 0.5 ml Amphotericin B 2500 μg/ml (Biological industries cat no. 03-029-1) and 5 ml Gentamycin sulfate 50 mg/ml (Biological industries cat no. 03-035-1) was used for cell culturing and re-suspension and the cells were re-suspended to a final concentration of 100,000 cells/ml medium.
(§10) A radius 96-well Cell Migration Assay plate (Cell Biolabs Inc. cat no. CBA-126) was prepared according to the manufacturer's protocol and each well was loaded with 100 μl cells such that each well contained 10,000, 15,000 or 30,000 cells. […]

The test system of assay [6] is adenocarcinoma pancreatic cancer cells, cell line 2. The assay can be described thus: Radius cell migration assay, cell line 2. It counts as cell-based, human. To be noted: cell line 2, Nerofe 10 μg/ml. The procedure: as §6, §7, §8, §9, §10
Assay [7] concerns human adenocarcinoma pancreatic cancer cells. The assay can be described thus: Cell migration assay after 48 hours pre-incubation with peptide. It counts as cell-based. To be noted: 25 μg/ml peptide for 48 hours before assay; 27 hours vs 1 hour; FIG. 3, FIG. 4. As to the method:
as §7, §9
Alternatively, the supernatant was discarded and replaced by 200 μl DMEM containing 2.5% 1-BS and the required treatment, namely control (without Nerofe), 10, 25 or 50 μg/ml Nerofe. The cells were then incubated at 37° C. for 48 hours in an incubator.
When the cells reached 70-80% density, the supernatant was discarded and the gel was removed from the center of the well, without affecting the attachment of cells as described in the manufacturer's protocol. […]

The test system of assay [8] is vascular endothelial growth factor (VEGF). The assay is described as follows: Clinical study: serum level of VEGF in cancer patients (ELISA). In kind it is in vivo, human. The procedure: Therefore a clinical study that follows the serum levels of VEGF was conducted in cancer patients that were administered with the peptide Nerofe. Patients participating in the study were diagnosed with various cancer types, namely colon, colorectal, spindle cell neoplasm, pancreas, small intestine, non small cell lung carcinoma, hepatic carcinoma, colon adenocarcinoma and rectal adenocarcinoma, as summarized in Table 3 below.
Patients were included in at least one of Cohort 1, Cohort 2, Cohort 3 and Cohort 4 and received doses of […] (about 0.16, 0.32, 0.64 or 1.28 mg/kg body weight) of the peptide Nerofe, respectively, at the indicated time points.
Serum levels of VEGF were measured in blood samples obtained form these patients using an Elisa kit for human VEFG (R&D systems) and the results are presented in FIG. 5 (for the patients of Cohort 1 and Cohort 2) and in FIG. 6 (for the patients of Cohort 3 and Cohort 4).

In assay [9] the test system is various cancer cells of hematopoietic origin. Particulars: inhibitory effect defined as at least 40% inhibition vs control; cited from earlier work.

In the case of “LHLWLSGEPVQSSGTKDMRSKSDSKRVSDKQLISKAVWWTFFLPSTLWERK (isolated synthetic peptide (fragment of T 101 peptide)) [T101 peptide, Full length thymus peptide, devoid of its N-terminal 33 amino acids; 51 amino acids long]”, the tumor size result in the assay with tumor was “significantly reduce tumor size”.
Turning to “WWTFFLPSTLWERK [Nerofe, C-terminal 14 all D amino acid fragment of the full T101 peptide, …]”, the “level of secreted TPA compared to control cells” value in assay [1] is “lower levels of secreted TPA”. Moreover, the “level of sST2 compared to cells not incubated with the peptide” value in [2] is reported as “lower levels of sST2; also recorded: dose-dependent”. Moreover, in assay [3], the “decrease in the level of sST2” value is listed as “about 80%”. Further, the “inhibition of BrdU incorporation” value in assay [4] was “up to 26%”. The “% inhibition of migration” value in assay [5] (8 hours) is 30%; in [6] (8 hours), 82%. In addition, the “% Migration after 8 hours” value is 70% in [5] (control = 100) and 18% in assay [6] (control = 100). The “migration of cells into cell-free area” value in [7] is “substantially inhibited”. For the same sequence, in assay [8] (cancer patients, Cohort 1 and Cohort 2, 6 or 12 mg/m^2, FIG. 5), the “change of serum level of VEGF” value is on record as “increase”. In addition, the “decrease of serum level of VEGF” value in assay [8] (cancer patients, Cohort 3 and Cohort 4, 24 or 48 mg/m^2, FIG. 6) is given as 30-40%. For the same sequence, in assay [8] (patients 13 (small intestine) and 19 (rectal adenocarcinoma)), the “decrease of serum level of VEGF in single patients” value is given as “particularly significant”. For the same sequence, the cell proliferation entry in assay [9] was “inhibit cell proliferation”.
